Converted amounts (≈) assume the structure as drawn.
Columns and labels:
in vivo [1] = conditions: Wistar, rat, iv, 3 mg/kg
in vivo [2] = conditions: Wistar, rat, po, 10 mg/kg
in vivo [3] = conditions: Wistar, rat, po, 10 mg/kg; remark: listed apart in the source
in vivo [4] = conditions: Wistar, rat, brain/plasma, po, 10 mg/kg
physchem [5] = conditions: buffer, pH 7.4
physchem [6] = conditions: buffer, pH 7.4; remark: listed apart in the source
in vivo [7] = conditions: Wistar, rat, po, 10 mg/kg; remark: listed apart in the source
in vivo [8] = conditions: Wistar, rat, iv, 3 mg/kg; remark: listed apart in the source
in vivo [9] = conditions: Wistar, rat, po, 10 mg/kg; remark: listed apart in the source
in vivo [10] = conditions: Wistar, rat, po, 10 mg/kg; remark: listed apart in the source
in vivo [11] = conditions: Wistar, rat, iv, 3 mg/kg; remark: listed apart in the source

- clearance (in vivo [1]): 60 mL/min/kg
- Tmax (in vivo [2]): 30 min
- AUC(0-t) at 5 h (in vivo [3]): 1820 ng·h/mL
- Kp (in vivo [4]): 1.02
- logD (physchem [5]): 3.09
- solubility (physchem [6]): 43 µg/mL (≈ 133 µM)
- bioavailability (in vivo [7]): 67%
- AUC(0-t) at 2 h (in vivo [8]): 833 ng·h/mL
- Cmax (in vivo [9]): 1360 ng/mL
- half-life (in vivo [10]): 54.6 min
- half-life (in vivo [11]): 15.6 min
SMILES: O=C1c2nc3cccc(C(F)(F)F)c3n2CCN1CC1CCC1
